Literature values, collected in patent US20060177438A1, “Methods of altering absorption of hydrophobic compounds” (New England Medical Center, priority 2005, published 2006).

Settings: cited from earlier work

In the case of CC(C)CCC[C@@H](C)[C@H]1CC[C@H]2[C@@H]3CC=C4C[C@@H](O)CC[C@]4(C)[C@H]3CC[C@]12C [cholesterol], the “dietary cholesterol absorbed by the human intestine” value is listed as 34-57%.
